2 molecules from ChEMBL document CHEMBL1833889, “Ursolic acid is a PPAR-α agonist that regulates hepatic lipid metabolism” (Bioorg Med Chem Lett, 2011) can be followed below.

The source made the active and inactive calls. The calls are words filed in the database; no cut-off is given here.

The target in experiment [1] is T1, Peroxisome proliferator-activated receptor alpha (Homo sapiens) (UniProt Q07869).
T1 sequence (whole entry): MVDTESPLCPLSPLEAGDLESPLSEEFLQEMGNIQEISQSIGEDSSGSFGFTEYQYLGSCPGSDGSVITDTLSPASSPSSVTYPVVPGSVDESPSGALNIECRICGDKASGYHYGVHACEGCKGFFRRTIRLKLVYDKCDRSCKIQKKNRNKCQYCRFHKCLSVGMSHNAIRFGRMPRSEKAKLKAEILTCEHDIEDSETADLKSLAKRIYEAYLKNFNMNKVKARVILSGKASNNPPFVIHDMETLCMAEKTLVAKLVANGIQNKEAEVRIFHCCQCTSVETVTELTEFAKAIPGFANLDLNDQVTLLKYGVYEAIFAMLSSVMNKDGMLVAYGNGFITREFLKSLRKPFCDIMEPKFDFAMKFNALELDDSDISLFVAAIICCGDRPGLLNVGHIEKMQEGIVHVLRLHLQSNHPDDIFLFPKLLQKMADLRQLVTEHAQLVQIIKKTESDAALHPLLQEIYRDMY
The experiment in a line: (§1) Binding affinity to histidine-tagged human PPARalpha-LBD assessed as recruitment of co-activator peptide fluorescein-labeled PGC1alpha after 2 hrs by TR-FRET assay. On the technique in general: Time-resolved FRET reads energy transfer from a long-lived donor to a nearby acceptor.

In experiment [2] the target is T2, Peroxisome proliferator-activated receptor alpha (Homo sapiens, UniProt Q07869).
T2 sequence (Q07869 whole entry): T1 sequence (whole entry)
The experiment is described as §1.

Experiment [3] deals with T1, Peroxisome proliferator-activated receptor alpha (Homo sapiens). The experiment is described as follows: Binding affinity to histidine-tagged human PPARalpha-LBD by SPR analysis.
The test system of experiment [4] is HepG2. The experiment in a line: Induction of BODIPY-labeled 4,4-difluoro-5-methyl-4-bora-3a,4a-diaza-s-indacene-3-dodecanoic acid uptake in human HepG2 cells after 1 min by FACS analysis. Format: functional, cell-based. (In general: Flow cytometry measures light scatter and fluorescence of single cells or particles in a stream.)
The target of experiment [5] is T1, Peroxisome proliferator-activated receptor alpha (Homo sapiens). The experiment is described as follows: Agonist activity at PPARalpha in human HepG2 cells assessed as up-regulation of FATP4 mRNA expression at 80 uM by quantitative PCR analysis. Format: functional, cell-based.
The target is the same in experiment [6]. The experiment is described as follows: (§2) Agonist activity at human recombinant PPARalpha expressed in HepG2 cells co-transfected with pGL3-PPRE3-TK-luc reporter assessed as […] after 24 hrs by luciferase based transactivation assay. The class given is functional, cell-based.
The target of experiment [7] is T2, Peroxisome proliferator-activated receptor alpha. The description is as §2. The class given is functional, cell-based.
The target of experiment [8] is T1, Peroxisome proliferator-activated receptor alpha (Homo sapiens). The experiment is described as follows: Agonist activity at human recombinant PPARalpha expressed in HepG2 cells co-transfected with pGL3-PPRE3-TK-luc reporter assessed as […] at 80 uM after 24 hrs by luciferase based transactivation assay. The class given is functional, cell-based.

Experiment [9] has the same target. The experiment in a line: Agonist activity at human recombinant PPARalpha expressed in HepG2 cells assessed as binding of activated PPARalpha to the PPRE at 20 uM by ELISA-based assay. Format: cell-based. (In an ELISA, binding on a coated surface is turned into a signal by an enzyme label.)
Experiment [10] relates to HepG2. The experiment is described as follows: Hypolipidemic activity in human HepG2 cells assessed as decrease in triglyceride level at 5 uM relative to control. Details: scale not given: the % may be the effect or the level left. Format: functional.
In experiment [11] the test system is HepG2. The experiment in a line: Hypolipidemic activity in human HepG2 cells assessed as decrease in triglyceride level at 20 uM relative to control. Format: functional. Details: scale not given: the % may be the effect or the level left.
The subject of experiment [12] is HepG2. The experiment in a line: Hypolipidemic activity in human HepG2 cells assessed as decrease in triglyceride level at 80 uM relative to control. The class given is functional. Details: scale not given: the % may be the effect or the level left.
Experiment [13] relates to HepG2. The experiment is described as follows: Hypolipidemic activity in human HepG2 cells assessed as decrease in cholesterol level at 5 uM by fluorescence-based method relative to control. The class given is functional. Details: scale not given: the % may be the effect or the level left.
For experiment [14], the system named is HepG2. The experiment in a line: Hypolipidemic activity in human HepG2 cells assessed as decrease in cholesterol level at 20 uM by fluorescence-based method relative to control. Details: scale not given: the % may be the effect or the level left. Format: functional.
The subject of experiment [15] is HepG2. The experiment in a line: Hypolipidemic activity in human HepG2 cells assessed as decrease in cholesterol level at 80 uM by fluorescence-based method relative to control. Format: functional. Details: scale not given: the % may be the effect or the level left.
For experiment [16], the system named is HepG2. The experiment in a line: Induction of BODIPY-labeled 4,4-difluoro-5-methyl-4-bora-3a,4a-diaza-s-indacene-3-dodecanoic acid uptake in human HepG2 cells at 80 uM after 1 min by FACS analysis. The class given is functional.
The target in experiment [17] is T1, Peroxisome proliferator-activated receptor alpha (Homo sapiens). The experiment in a line: Agonist activity at PPARalpha in human HepG2 cells assessed as up-regulation of FATP4 mRNA expression at 20 uM by quantitative PCR analysis. Format: functional, cell-based.
Experiment [18] has the same target. The experiment in a line: Agonist activity at PPARalpha in human HepG2 cells assessed as up-regulation of PPARalpha mRNA expression at 5 uM by quantitative PCR analysis. The class given is functional, cell-based.
Experiment [19] shares this target. The experiment is described as follows: Agonist activity at PPARalpha in human HepG2 cells assessed as up-regulation of PPARalpha mRNA expression at 20 uM by quantitative PCR analysis. The class given is functional, cell-based.
The target is the same in experiment [20]. The experiment is described as follows: Agonist activity at PPARalpha in human HepG2 cells assessed as up-regulation of PPARalpha mRNA expression at 80 uM by quantitative PCR analysis. Format: functional, cell-based.
The target is the same in experiment [21]. The experiment is described as follows: Agonist activity at PPARalpha in human HepG2 cells assessed as up-regulation of acyl-CoA synthetase mRNA expression at 5 to 80 uM by quantitative PCR analysis. The class given is functional, cell-based.
Experiment [22] has the same target. The experiment in a line: Agonist activity at PPARalpha in human HepG2 cells assessed as up-regulation of carnitine palmitoyl transferase mRNA expression at 80 uM by quantitative PCR analysis relative to control. The class given is functional, cell-based.
The target is the same in experiment [23]. The experiment is described as follows: Agonist activity at PPARalpha in human HepG2 cells assessed as down-regulation of FAS mRNA expression at 80 uM by quantitative PCR analysis. Format: functional, cell-based.
Experiment [24] has the same target. The experiment in a line: Agonist activity at PPARalpha in human HepG2 cells assessed as effect on LPL mRNA expression at 5 to 80 uM by quantitative PCR analysis. Format: functional, cell-based.
Experiment [25] has the same target. The experiment is described as follows: Agonist activity at PPARalpha in human HepG2 cells assessed as down-regulation of SCD1 mRNA expression at 80 uM by quantitative PCR analysis. Format: functional, cell-based.
The target is the same in experiment [26]. The experiment is described as follows: Agonist activity at PPARalpha in human HepG2 cells assessed as down-regulation of SREBP1c mRNA expression at 80 uM by quantitative PCR analysis. Format: functional, cell-based.
Experiment [27] shares this target. The experiment in a line: Agonist activity at PPARalpha in human HepG2 cells assessed as up-regulation of ACOX mRNA level at 80 uM by quantitative PCR analysis. Format: functional, cell-based.

One may read the EC50 as the concentration that produces a half-maximal response. Regarding `CC(C)(Oc1ccc(C(=O)c2ccc(Cl)cc2)cc1)C(=O)O` [FENOFIBRIC ACID], the Activity result (in [1]; in the experiment on HepG2 [4]) was “Dose-dependent effect” in each case. Further, the EC50 in [2] was determined as 4.5 µM. Besides, the outcome in experiment [3] was Active.

As for `C[C@H]1[C@H](C)CC[C@]2(C(=O)O)CC[C@]3(C)C(=CC[C@@H]4[C@@]5(C)CC[C@H](O)C(C)(C)[C@@H]5CC[C@]43C)[C@H]12` [URSOLIC ACID], the Activity is 259% in experiment [5]; “Dose-dependent effect” in experiment [6]; 214% in experiment [8]; 46% in experiment [9]; 23.5% in the experiment with HepG2 [10]; 38.8% in the experiment with HepG2 [11]. Further, the Activity with HepG2 [12] came to 44.7%; in the experiment with HepG2 [13] it was 11%; with HepG2 [14], 18.9%; in the experiment with HepG2 [15] it was 26.5%; with HepG2 [16], 108.7%; in experiment [17] it was 185%. The Activity in [18] is 134%; in [19], 156%; in [20] it was 195%; in [22], 1020%; in experiment [23] it was 23%; in experiment [25], 15%. In addition, the figures for the Activity in experiment [26] and in experiment [27] were 28% and 24%, respectively. The EC50 in experiment [7] was determined as 41.3 µM. For the same molecule, the result in [1], in [3] and in experiment [24] was inactive. For the same molecule, in [21], the outcome was Active.
